US11643388B2, “Inhibitors of alpha 2 beta 1 integrin and methods of use thereof” (The Regents of the University of California, priority 2020, dated 2023)

Each compound was assayed against α2β1 (Homo sapiens, UniProt P05556+P17301) (assay: α2β1 cell adhesion).
Assay type: cell-based

Chain of α2β1 (P17301 30-1181): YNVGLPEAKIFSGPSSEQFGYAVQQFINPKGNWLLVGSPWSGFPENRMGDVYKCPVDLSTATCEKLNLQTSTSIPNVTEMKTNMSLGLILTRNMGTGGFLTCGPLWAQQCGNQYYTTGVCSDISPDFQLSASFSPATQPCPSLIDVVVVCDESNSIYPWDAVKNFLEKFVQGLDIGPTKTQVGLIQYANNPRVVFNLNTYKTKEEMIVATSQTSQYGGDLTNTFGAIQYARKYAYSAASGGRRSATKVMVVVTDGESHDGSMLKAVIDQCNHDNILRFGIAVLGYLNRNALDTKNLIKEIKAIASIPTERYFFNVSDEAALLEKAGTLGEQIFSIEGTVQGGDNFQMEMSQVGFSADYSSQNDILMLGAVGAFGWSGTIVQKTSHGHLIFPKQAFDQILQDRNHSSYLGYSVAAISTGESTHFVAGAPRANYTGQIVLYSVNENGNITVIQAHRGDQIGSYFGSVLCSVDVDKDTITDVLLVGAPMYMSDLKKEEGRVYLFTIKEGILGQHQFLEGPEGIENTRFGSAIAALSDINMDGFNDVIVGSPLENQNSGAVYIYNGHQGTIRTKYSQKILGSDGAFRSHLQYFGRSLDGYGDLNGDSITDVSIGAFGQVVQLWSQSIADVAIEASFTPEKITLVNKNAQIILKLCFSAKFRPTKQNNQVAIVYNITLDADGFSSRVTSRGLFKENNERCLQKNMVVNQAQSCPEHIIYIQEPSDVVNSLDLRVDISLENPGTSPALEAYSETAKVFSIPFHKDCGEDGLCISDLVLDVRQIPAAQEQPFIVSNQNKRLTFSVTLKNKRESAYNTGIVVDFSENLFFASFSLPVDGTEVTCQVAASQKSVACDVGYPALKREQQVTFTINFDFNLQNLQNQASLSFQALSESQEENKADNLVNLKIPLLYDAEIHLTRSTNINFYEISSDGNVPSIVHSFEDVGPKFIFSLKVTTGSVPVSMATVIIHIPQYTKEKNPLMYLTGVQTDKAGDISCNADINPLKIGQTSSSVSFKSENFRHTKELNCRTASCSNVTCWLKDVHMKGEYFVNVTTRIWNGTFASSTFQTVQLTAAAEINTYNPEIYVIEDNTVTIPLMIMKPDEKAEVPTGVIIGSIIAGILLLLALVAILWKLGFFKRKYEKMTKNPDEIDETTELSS
Chain of α2β1 (P05556 21-798): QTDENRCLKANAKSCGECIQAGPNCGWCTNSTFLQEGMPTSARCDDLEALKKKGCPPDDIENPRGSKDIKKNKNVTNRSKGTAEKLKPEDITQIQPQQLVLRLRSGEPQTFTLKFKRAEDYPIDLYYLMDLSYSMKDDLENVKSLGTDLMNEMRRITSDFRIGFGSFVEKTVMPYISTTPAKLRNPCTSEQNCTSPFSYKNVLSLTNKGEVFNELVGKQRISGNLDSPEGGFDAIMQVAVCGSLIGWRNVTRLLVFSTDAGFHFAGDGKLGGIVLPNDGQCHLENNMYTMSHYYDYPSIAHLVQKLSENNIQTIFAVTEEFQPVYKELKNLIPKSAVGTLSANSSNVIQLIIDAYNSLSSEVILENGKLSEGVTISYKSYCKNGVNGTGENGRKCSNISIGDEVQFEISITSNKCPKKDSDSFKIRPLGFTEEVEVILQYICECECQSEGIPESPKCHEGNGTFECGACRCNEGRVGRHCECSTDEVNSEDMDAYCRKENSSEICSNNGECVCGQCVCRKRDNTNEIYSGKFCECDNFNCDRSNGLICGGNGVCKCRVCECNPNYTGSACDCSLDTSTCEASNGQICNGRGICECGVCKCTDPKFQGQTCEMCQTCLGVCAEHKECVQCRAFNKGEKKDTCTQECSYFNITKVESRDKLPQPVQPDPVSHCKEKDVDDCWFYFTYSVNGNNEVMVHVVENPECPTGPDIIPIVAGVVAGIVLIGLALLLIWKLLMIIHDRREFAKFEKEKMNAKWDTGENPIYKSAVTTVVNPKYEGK

Structure (SMILES) | IC50
CC(C)CCNc1ccc(Cl)c(C(=O)N[C@@H](CNC(=O)N[C@@H]2CCc3ccccc32)C(=O)O)c1Cl [SU15210-0125-01, (S)-2-(2,6-dichloro-3-(isopentylamino)benzamido)-3-(3-((R)-2,3-dihydro-1H-inden-1-yl)ureido)propanoic Acid] | 1000 to 5000 nM
O=C(Cc1cccc(Cl)c1)Nc1cc(Cl)c(C(=O)N[C@@H](CNC(=O)N[C@@H]2CCc3ccccc32)C(=O)O)c(Cl)c1 [SU15210-0235-01, (S)-2-(2,6-dichloro-4-(2-(3-chlorophenyl)acetamido)benzamido)-3-(3-((R)-2,3-dihydro-1H-inden-1-yl)ureido)propanoic Acid] | < 500 nM
CN(Cc1cccc(Cl)c1)C(=O)c1cc(Cl)c(C(=O)N[C@@H](CNC(=O)N[C@@H]2CCc3ccccc32)C(=O)O)c(Cl)c1 [SU15210-0226-01, (S)-2-(2,6-dichloro-4-((3-chlorobenzyl)(methyl)carbamoyl)benzamido)-3-(3-((R)-2,3-dihydro-1H-inden-1-yl)ureido)propanoic Acid] | 500 to 1000 nM
CC(=O)N1CCc2c(cc(Cl)c(C(=O)N[C@@H](CNC(=O)N[C@@H]3CCc4ccccc43)C(=O)O)c2Cl)C1 [SU15210-0174-01] | 1000 to 5000 nM
Nc1ccc(Cl)c(C(=O)N[C@@H](CNC(=O)N[C@@H]2CCc3ccccc32)C(=O)O)c1Cl [SU15210-0084-01, (S)-2-(3-amino-2,6-dichlorobenzamido)-3-(3-((R)-2,3-dihydro-1H-inden-1-yl)ureido)propanoic Acid] | 500 to 1000 nM
O=C(NC[C@H](NC(=O)c1c(Cl)cc2c(c1Cl)CCNC2)C(=O)O)N[C@@H]1CCc2ccccc21 [SU15210-0171-01] | > 5000 nM
O=C(NC[C@H](NC(=O)c1c(Cl)cc(N2CC(c3ccccc3)C2)cc1Cl)C(=O)O)N[C@@H]1CCc2ccccc21 [SU15210-0190-01] | > 5000 nM
C[C@H](NC(=O)c1cc(Cl)c(C(=O)N[C@@H](CNC(=O)N[C@@H]2CCc3ccccc32)C(=O)O)c(Cl)c1)c1ccccc1 [SU15210-0224-01, (S)-2-(2,6-dichloro-4-((S)-1-phenylethylcarbamoyl)benzamido)-3-(3-((R)-2,3-dihydro-1H-inden-1-yl)ureido)propanoic Acid] | 1000 to 5000 nM
O=C(NC[C@H](NC(=O)c1c(Cl)ccc(NC2CCc3ccccc3C2)c1Cl)C(=O)O)N[C@@H]1CCc2ccccc21 (stereo partly drawn) [SU15210-0126-01, (2S)-2-(2,6-dichloro-3-(1,2,3,4-tetrahydronaphthalen-2-ylamino)benzamido)-3-(3-((R)-2,3-dihydro-1H-inden-1-yl)ureido)propanoic Acid] | 1000 to 5000 nM
O=C(NC[C@H](NC(=O)c1c(Cl)cc(C(=O)N2Cc3ccccc3C2)cc1Cl)C(=O)O)N[C@@H]1CCc2ccccc21 [SU15210-0228-01, (S)-2-(2,6-dichloro-4-(isoindoline-2-carbonyl)benzamido)-3-(3-((R)-2,3-dihydro-1H-inden-1-yl)ureido)propanoic Acid] | 1000 to 5000 nM
CC(C)c1cccc(Nc2ccc(Cl)c(C(=O)N[C@@H](CNC(=O)N[C@@H]3CCc4ccccc43)C(=O)O)c2Cl)c1 [SU15210-0078-01, (S)-2-(2,6-dichloro-3-(3-isopropylphenylamino)benzamido)-3-(3-((R)-2,3-dihydro-1H-inden-1-yl)ureido)propanoic Acid] | 500 to 1000 nM
O=C(NC[C@H](NC(=O)c1c(Cl)cc(-n2cnc(-c3ccccc3)c2)cc1Cl)C(=O)O)N[C@@H]1CCc2ccccc21 [SU15210-0192-01, (S)-2-(2,6-dichloro-4-(4-phenyl-1H-imidazol-1-yl)benzamido)-3-(3-((R)-2,3-dihydro-1H-inden-1-yl)ureido)propanoic Acid] | 1000 to 5000 nM
O=C(NC[C@H](NC(=O)c1c(Cl)cc(C(=O)N2CC(c3ccccc3)C2)cc1Cl)C(=O)O)N[C@@H]1CCc2ccccc21 [SU15210-0234-01] | < 500 nM
O=C(NC[C@H](NC(=O)c1c(Cl)cc(-c2ccccc2)cc1Cl)C(=O)O)N[C@@H]1CCc2ccccc21 [SU15210-0140-01] | > 5000 nM
O=C(NC[C@H](NC(=O)c1c(Cl)cc(OCCc2ccccc2)cc1Cl)C(=O)O)N[C@@H]1CCc2ccccc21 [SU15210-0188-01, (S)-2-(2,6-dichloro-4-phenethoxybenzamido)-3-(3-((R)-2,3-dihydro-1H-inden-1-yl)ureido)propanoic Acid] | 1000 to 5000 nM
O=C(Cc1cccc(Cl)c1)Nc1ccc(Cl)c(C(=O)N[C@@H](CNC(=O)NCc2ccccc2O)C(=O)O)c1Cl [SU15210-0159-01, (S)-2-(2,6-dichloro-3-(2-(3-chlorophenyl)acetamido)benzamido)-3-(3-(2-hydroxybenzyl)ureido)propanoic Acid] | < 500 nM
CN(Cc1ccccc1)C(=O)NC[C@H](NC(=O)c1c(Cl)cc(C(=O)NCc2cccc(Cl)c2)cc1Cl)C(=O)O [SU15210-0223-01, (S)-3-(3-benzyl-3-methylureido)-2-(2,6-dichloro-4-(3-chlorobenzylcarbamoyl)benzamido)propanoic Acid] | < 500 nM

Second part, the compound after the results:

IC50 | Structure (SMILES)
1000 to 5000 nM | O=C(NC[C@H](NC(=O)c1c(Cl)cc2c(c1Cl)CCN(Cc1ccc(F)cc1)C2)C(=O)O)N[C@@H]1CCc2ccccc21 [SU15210-0210-01, (S)-2-(5,7-dichloro-2-(4-fluorobenzyl)-1,2,3,4-tetrahydroisoquinoline-6-carboxamido)-3-(3-((R)-2,3-dihydro-1H-inden-1-yl)ureido)propanoic Acid]
500 to 1000 nM | Cc1cccc(CC(=O)Nc2ccc(Cl)c(C(=O)N[C@@H](CNC(=O)N[C@@H]3CCc4ccccc43)C(=O)O)c2Cl)c1 [SU15210-0156-01, (S)-2-(2,6-dichloro-3-(2-m-tolylacetamido)benzamido)-3-(3-((R)-2,3-dihydro-1H-inden-1-yl)ureido)propanoic Acid]
< 500 nM | CC1(C)CCC(NC(=O)NC[C@H](NC(=O)c2c(Cl)cc(C(=O)NCc3cccc(O)c3)cc2Cl)C(=O)O)c2ccccc21 (stereo partly drawn) [SU15210-0187-01, (2S)-2-(2,6-dichloro-4-(3-hydroxybenzylcarbamoyl)benzamido)-3-(3-(4,4-dimethyl-1,2,3,4-tetrahydronaphthalen-1-yl)ureido)propanoic Acid]
500 to 1000 nM | O=C(Cc1ccc(F)c(Cl)c1)Nc1ccc(Cl)c(C(=O)N[C@@H](CNC(=O)N[C@@H]2CCc3ccccc32)C(=O)O)c1Cl [SU15210-0155-01, (S)-2-(2,6-dichloro-3-(2-(3-chloro-4-fluorophenyl)acetamido)benzamido)-3-(3-((R)-2,3-dihydro-1H-inden-1-yl)ureido)propanoic Acid]
500 to 1000 nM | O=C(NC[C@H](NC(=O)c1c(Cl)cc(C(=O)N2CCc3ccccc3C2)cc1Cl)C(=O)O)N[C@@H]1CCc2ccccc21 [SU15210-0227-01, (S)-2-(2,6-dichloro-4-(1,2,3,4-tetrahydroisoquinoline-2-carbonyl)benzamido)-3-(3-((R)-2,3-dihydro-1H-inden-1-yl)ureido)propanoic Acid]
< 500 nM | O=C(NC[C@H](NC(=O)c1c(Cl)cc2c(c1Cl)CCN(Cc1ccccc1)C2=O)C(=O)O)N[C@@H]1CCc2ccccc21 [SU15210-0211-01, (S)-2-(2-benzyl-5,7-dichloro-1-oxo-1,2,3,4-tetrahydroisoquinoline-6-carboxamido)-3-(3-((R)-2,3-dihydro-1H-inden-1-yl)ureido)propanoic Acid]
1000 to 5000 nM | O=C(NC[C@H](NC(=O)c1c(Cl)ccc(NCCc2ccccc2)c1Cl)C(=O)O)N[C@@H]1CCc2ccccc21 [SU15210-0097-01, (S)-2-(2,6-dichloro-3-(phenethylamino)benzamido)-3-(3-((R)-2,3-dihydro-1H-inden-1-yl)ureido)propanoic Acid]
500 to 1000 nM | O=C(NC[C@H](NC(=O)c1c(Cl)cc(COCc2ccccc2)cc1Cl)C(=O)O)N[C@@H]1CCc2ccccc21 [SU15210-0189-01, (S)-2-(4-(benzyloxymethyl)-2,6-dichlorobenzamido)-3-(3-((R)-2,3-dihydro-1H-inden-1-yl)ureido)propanoic Acid]
1000 to 5000 nM | O=C(NC[C@H](NC(=O)c1c(Cl)ccc(N2CC(c3ccc(Cl)cc3)C2)c1Cl)C(=O)O)N[C@@H]1CCc2ccccc21 [SU15210-0163-01, (S)-2-(2,6-dichloro-3-(3-(4-chlorophenyl)azetidin-1-yl)benzamido)-3-(3-((R)-2,3-dihydro-1H-inden-1-yl)ureido)propanoic Acid]
1000 to 5000 nM | Cc1ccc(CC(=O)Nc2ccc(Cl)c(C(=O)N[C@@H](CNC(=O)N[C@@H]3CCc4ccccc43)C(=O)O)c2Cl)cc1Cl [SU15210-0154-01, (S)-2-(2,6-dichloro-3-(2-(3-chloro-4-methylphenyl)acetamido)benzamido)-3-(3-((R)-2,3-dihydro-1H-inden-1-yl)ureido)propanoic Acid]
< 500 nM | O=C(NC[C@H](NC(=O)c1c(Cl)cc2c(c1Cl)CCN(C(=O)c1ccc(Cl)cc1)C2)C(=O)O)N[C@@H]1CCc2ccccc21 [SU15210-0208-01, (S)-2-(5,7-dichloro-2-(4-chlorobenzoyl)-1,2,3,4-tetrahydroisoquinoline-6-carboxamido)-3-(3-((R)-2,3-dihydro-1H-inden-1-yl)ureido)propanoic Acid]
1000 to 5000 nM | O=C(NC[C@H](NC(=O)c1c(Cl)cc2c(c1Cl)CCN(S(=O)(=O)c1ccccc1)C2)C(=O)O)N[C@@H]1CCc2ccccc21 [SU15210-0214-01, (S)-2-(5,7-dichloro-2-(phenylsulfonyl)-1,2,3,4-tetrahydroisoquinoline-6-carboxamido)-3-(3-((R)-2,3-dihydro-1H-inden-1-yl)ureido)propanoic Acid]
< 500 nM | C[C@@H](NC(=O)c1cc(Cl)c(C(=O)N[C@@H](CNC(=O)N[C@@H]2CCc3ccccc32)C(=O)O)c(Cl)c1)c1ccccc1 [SU15210-0225-01, (S)-2-(2,6-dichloro-4-((R)-1-phenylethylcarbamoyl)benzamido)-3-(3-((R)-2,3-dihydro-1H-inden-1-yl)ureido)propanoic Acid]
< 500 nM | O=C(NC[C@H](NC(=O)c1c(Cl)cc2c(c1Cl)CCN(C(=O)c1cccc(Cl)c1)C2)C(=O)O)N[C@@H]1CCc2ccccc21 [SU15210-0209-01, (S)-2-(5,7-dichloro-2-(3-chlorobenzoyl)-1,2,3,4-tetrahydroisoquinoline-6-carboxamido)-3-(3-((R)-2,3-dihydro-1H-inden-1-yl)ureido)propanoic Acid]
